Laboratory results: the supplement of paper PMC10307832

Key:
Bleomycin + Dasatinib = compound: CC1=C(N=C(N=C1N)[C@H](CC(=O)N)NC[C@@H](C(=O)N)N)C(=O)N[C@@H]([C@H](C2=CN=CN2)OC3C(C(C(C(O3)CO)O)O)OC4C(C(C(C(O4)CO)O)OC(=O)N)O)C(=O)N[C@H](C)[C@H]([C@H](C)C(=O)N[C@@H]([C@@H](C)O)C(=O)NCCC5=NC(=CS5)C6=NC(=CS6)C(=O)NCCC[S+](C)C)O [Bleomycin] + Cc1nc(Nc2ncc(C(=O)Nc3c(C)cccc3Cl)s2)cc(N2CCN(CCO)CC2)n1 [Dasatinib] (partner 0.075 µM); assay: relative viability (nuclei count vs DMSO), 5 days (fraction); higher = more cells survive; details: main component drawn
Method in brief: (§1)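 Relative viability was taken as the ratio of nuclei in treated wells to nuclei in vehicle wells. Lung cancer cell lines in 1536-well plates received compounds by pin tool one day after seeding, either one drug alone or a fixed anchor-drug dose plus five library-drug doses (not always all listed) in √10 steps. Nuclei were counted on 4× images after 5 days of treatment, and values are medians of duplicate plates.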

Bleomycin + Luminespib = compound: CC1=C(N=C(N=C1N)[C@H](CC(=O)N)NC[C@@H](C(=O)N)N)C(=O)N[C@@H]([C@H](C2=CN=CN2)OC3C(C(C(C(O3)CO)O)O)OC4C(C(C(C(O4)CO)O)OC(=O)N)O)C(=O)N[C@H](C)[C@H]([C@H](C)C(=O)N[C@@H]([C@@H](C)O)C(=O)NCCC5=NC(=CS5)C6=NC(=CS6)C(=O)NCCC[S+](C)C)O [Bleomycin] + CCNC(=O)c1noc(-c2cc(C(C)C)c(O)cc2O)c1-c1ccc(CN2CCOCC2)cc1 [Luminespib] (partner 0.01 µM); assay: as above; details: main component drawn
Method in brief: as §1

Cell Line	relative viability (Bleomycin + Dasatinib; first compound 0.01 µM)	relative viability (Bleomycin + Dasatinib; first compound 0.03162 µM)	relative viability (Bleomycin + Dasatinib; first compound 0.1 µM)	relative viability (Bleomycin + Dasatinib; first compound 0.3162 µM)	relative viability (Bleomycin + Dasatinib; first compound 1 µM)	relative viability (Bleomycin + Luminespib; first compound 0.01 µM)	relative viability (Bleomycin + Luminespib; first compound 0.03162 µM)	relative viability (Bleomycin + Luminespib; first compound 0.1 µM)	relative viability (Bleomycin + Luminespib; first compound 0.3162 µM)	relative viability (Bleomycin + Luminespib; first compound 1 µM)
NCI-H522	0.791	0.716	0.518	0.43	0.328	0.775	0.66	0.508	0.319	0.414
HCC-15	0.613	0.559	0.515	0.0886	0.177	0.183	0.231	0.203	0.164	0.144
A-427	0.53	0.56	0.496	0.137	0.144	0.747	0.775	0.753	0.256	0.158
NCI-H23	0.535	0.552	0.321	0.148	0.167	0.228	0.2	0.211	0.176	0.216
NCI-H1734	0.357	0.312	0.348	0.145	0.154	0.167	0.187	0.198	0.13	0.147
NCI-H2087	–	0.852	0.668	0.131	0.13	–	0.162	0.188	0.124	0.142
PC-3 [JPC-3]	0.881	1.09	0.986	0.72	0.618	0.685	0.665	0.621	0.55	0.418
NCI-H1915	0.247	0.258	0.181	0.0914	0.0984	0.533	0.568	0.398	0.235	0.145
NCI-H1666	0.658	0.521	0.565	0.374	0.317	0.733	0.657	0.583	0.395	0.436
HCC-366	0.504	0.412	0.444	0.0996	0.0443	–	–	–	–	–
SK-MES-1	0.329	0.316	0.232	0.0893	0.0963	0.701	0.641	0.641	0.244	0.202
NCI-H727	0.466	0.345	0.325	–	0.293	0.375	0.376	0.357	–	0.223
RERF-LC-KJ	0.498	0.56	0.468	0.246	0.191	0.555	0.479	0.461	0.307	0.287
NCI-H1623	0.561	0.557	0.521	0.347	0.273	0.396	0.474	0.525	0.343	0.31
LC-2-ad	0.312	0.373	0.318	0.183	0.145	0.68	0.572	0.563	0.29	0.262
CAL-12T	0.246	0.259	0.164	0.0878	0.12	0.493	0.555	0.233	0.173	0.143
SK-LU-1	0.169	0.166	0.173	0.144	0.104	0.197	0.202	0.272	0.216	0.191
NCI-H1650	0.263	0.281	0.145	0.124	0.128	0.172	0.213	0.213	0.18	0.188
BEN	0.327	0.342	0.341	0.273	0.249	0.327	0.329	0.342	0.332	0.2
EMC-BAC-2	0.293	0.277	0.259	0.144	0.115	0.997	0.832	0.8	0.348	0.244
LU99A	0.366	0.505	0.367	0.205	0.125	0.297	0.283	0.256	0.172	0.162
ABC-1	0.516	0.53	0.61	0.31	0.285	0.578	0.737	0.561	0.198	0.225
NCI-H2170	0.504	0.599	0.638	0.285	0.389	0.604	0.494	0.593	0.355	0.515
NCI-H2405	0.206	0.212	0.208	0.181	0.166	0.651	0.697	0.589	0.347	0.358
NCI-H1993	0.548	0.604	0.597	0.462	0.464	0.738	0.497	0.716	0.57	0.41
NCI-H441	0.424	0.709	0.515	0.296	0.311	0.31	0.331	0.251	0.223	0.216
PC-14	0.176	0.126	0.0817	0.0123	0.0118	0.148	0.144	0.121	0.116	0.124
HARA	0.297	0.322	0.251	0.186	0.104	0.682	0.751	0.705	0.442	0.543
HCC-44	–	–	–	–	–	0.39	0.277	0.261	0.187	0.239
HCC-78	0.326	0.548	0.366	0.287	0.285	–	–	–	–	–
